# Entries after “also recorded” stand apart in the source; their conditions may differ. Where two headings read alike, the source gives them in different places.
# Columns and labels:
# [1] = test system: CD62L shedding; assay: Soluble CD62L ELISA, unstimulated PBMC; assay type: cell-based, human; conditions: Homo sapiens, PBMC, read-out: Shedding inhibition Non-stim.
# Protocol: PBMC from de-identified healthy donors were obtained with informed consent from the Department of Transfusion Medicine, National Institutes of Health under Biological reagent Registry RD-14-IX-12 approved by NIH biological safety board. CD8-depleted PBMCs, either stimulated or non-stimulated with 10 μg/mL phytohaemagglutinin (PHA) or anti-CD3 antibody (with or without conjugated beads), were plated at 2×10^6 cells/ml in 48 well plates in RPMI 1640 + 10%FBS (R10) to a final volume of 1 mL in each well. IL-2 was added at a final concentration of 20 U/mL. CD3 antibody okt3 was used at ~0.2 μg/mL final concentration. […] Supernatants were collected and assessed using either the CD62L or TNF-α Duo Set ELISA kit according to manufacturer's instructions (R&D Systems, Inc.). The viability of cells treated with compounds was assessed by acridine orange / propidiom iodide (AO/PI Logosbio catalog F23001) staining using Luna-FL cell counter following the manufacture's instruction.^2 […] Supplemental Figure 1. CD62L shedding from unstimulated PBMC. A) Soluble CD62L in the supernatant of unstimulated PBMC was measured By ELISA (R&D systems, Inc) after 24 hour treatment in the presence of 10 μM of […]), aminopeptidase (AP) protease inhibitors, respectively, or their untreated controls. Statistics were calculated using unpaired parametric student t-test between individual treatment and DMSO control. […] B) Viability of PBMC treated with 10-500 μM of MMP inhibitors for 24hours. […] Untreated DMSO AEBSF 3,4-Dichloroisocouman Granzyme B Inhibitor II Granzyme B Inhibitor IV Aprotinin […] 3 4 CD62L shedding from unstimulated PBMC Soluble CD62L (ng/ml) Inhibitor Class […] GI254023X 10 GI254023X 100 […] GI254023X 1000 GW280264X 10 GW280264X 100 […] GW280264X 1000 Marimastat 10 Marimastat 100 Marimastat 250 […]
# [2] = biological target: T1, recombinant ADAM10 (Homo sapiens, UniProt O14672); assay: Kinetic cleavage of fluorogenic TNF-α peptide ES003 by recombinant ADAM10; assay type: biochemical; conditions: for inhibition of ADAM10 cleavage of ES003: 2 μM compound; for Ki: ES003 substrate, 4-h time point, non-linear regression, read-out: Inhibition constant Ki ADAM10
# T1 construct: purchased R&D systems, Inc
# T1 sequence (O14672 214-748): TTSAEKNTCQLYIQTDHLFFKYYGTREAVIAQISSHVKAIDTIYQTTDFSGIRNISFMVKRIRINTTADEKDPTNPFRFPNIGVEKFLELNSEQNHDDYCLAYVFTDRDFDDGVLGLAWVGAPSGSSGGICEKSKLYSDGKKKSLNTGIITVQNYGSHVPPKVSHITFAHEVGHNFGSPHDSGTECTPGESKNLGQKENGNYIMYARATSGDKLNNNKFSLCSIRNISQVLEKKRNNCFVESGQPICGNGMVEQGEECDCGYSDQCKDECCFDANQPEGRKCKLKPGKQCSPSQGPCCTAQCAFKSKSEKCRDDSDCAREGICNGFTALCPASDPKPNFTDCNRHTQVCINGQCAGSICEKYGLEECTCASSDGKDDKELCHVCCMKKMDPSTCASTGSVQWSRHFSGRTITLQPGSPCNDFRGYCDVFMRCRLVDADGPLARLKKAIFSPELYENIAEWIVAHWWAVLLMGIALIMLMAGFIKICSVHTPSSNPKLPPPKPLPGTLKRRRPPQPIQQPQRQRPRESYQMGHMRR
# Description: A fluorescence based enzymatic assay was used to measure the cleavage of fluorogenic TNF-α and L-selectin (CD62L) peptides by either recombinant ADAMs or PBMC from healthy donors. The fluorogenic substrate, synthesized by Biomatik^3, was a Dabcyl (4-(4-dimethylaminophenylazo)benzoyl)- and Edans (5-[(2-aminoethyl)amino]naphthalene-1-sulfonic acid)- conjugated 12 amino acid peptide: Dabcyl-[…]-Edans that corresponds to the extracellular membrane proximal region of CD62L. […] The cleavage was measured in a kinetic assay every 3 min for 4 h in black 96-well plates using a Synergy_h1 fluorescent plate reader (BioTek) with 340 nm excitation and 490 nm emission wavelengths. […] PBMC were stimulated with anti-CD3 antibody for 2–4 days as described above.
# 96-well plate with data recorded every 3 minutes for 4 hours using a Synergy_h1 fluorescent plate reader. Each enzymatic reaction contained 50 -200 ng
# Figure 2B and 2C bar diagrams are generated using the
# data points at 4 hour time point of the enzymatic cleavages.
# [3] = test system: PBMC; assay: PBMC viability (AO/PI staining); assay type: cell-based, human; conditions: for PBMC viability at 24hr post treatment: 10-500 μM of MMP inhibitors for 24hours; for impact on cell viabilities in HIV-1BAL infection: PBMC post infection with HIV-1BAL
# Protocol: PBMC from de-identified healthy donors were obtained with informed consent from the Department of Transfusion Medicine, National Institutes of Health under Biological reagent Registry RD-14-IX-12 approved by NIH biological safety board. CD8-depleted PBMCs, either stimulated or non-stimulated with 10 μg/mL phytohaemagglutinin (PHA) or anti-CD3 antibody (with or without conjugated beads), were plated at 2×10^6 cells/ml in 48 well plates in RPMI 1640 + 10%FBS (R10) to a final volume of 1 mL in each well. IL-2 was added at a final concentration of 20 U/mL. CD3 antibody okt3 was used at ~0.2 μg/mL final concentration. Compounds were prepared in appropriate solvents according to the manufacturer’s instructions, diluted to working concentrations using RPMI 1640 + 10%FBS (R10), and added to the cell cultures for 6–24 h for CD62L shedding, and 48 h for TNF-α release. Supernatants were collected and assessed using either the CD62L or TNF-α Duo Set ELISA kit according to manufacturer’s instructions (R&D Systems, Inc.). The viability of cells treated with compounds was assessed by acridine orange / propidiom iodide (AO/PI Logosbio catalog F23001) staining using Luna-FL cell counter following the manufacture’s instruction.^2
# [4] = 10 μM compound, non-stimulated cells, ELISA
Structure (SMILES),"inhibition at 10 µM [1, 4] [%]",inhibition of ADAM10 cleavage of ES003 [2],Ki [2] [nM],PBMC viability at 24hr post treatment [3],inhibition at 10 µM [1] [%],concentrations inhibiting ADAM10 enzymatic activity [2] [nM],impact on cell viabilities in HIV-1BAL infection [3]
CNC(=O)[C@@H](NC(=O)[C@H](CCCc1ccccc1)[C@H](C)N(O)C=O)C(C)(C)C [GI254023X],20 to 50,preferentially inhibited the enzymatic activity of ADAM10 compared to ADAM17,11 ± 9,No significant decrease in the viability,,,
"CNC(=O)[C@H](Cc1ccccc1)NC(=O)[C@H](CC(C)C)[C@H](CSc1cccs1)C(=O)NO [BB-94, Batimastat]",,inhibited both ADAM10 and 17; also recorded: indistinguishable from that of ES003-only curve without the enzyme,,No significant decrease in the viability,> 50,20 to 50,without significant impact to cell viabilities
CC1(C)SCCN(S(=O)(=O)c2ccc(Oc3ccncc3)cc2)[C@H]1C(=O)NO [prinomastat],> 50,inhibited both ADAM10 and 17,2 ± 0.4,,,20 to 50,without significant impact to cell viabilities

# From article PMC10987949, “Inhibition of HIV-1 release by ADAM metalloproteinase inhibitors” (Frontiers in Microbiology, 2024)
